This is an account of results in ChEMBL document CHEMBL5036343, “Discovery and development of CPL207280 as new GPR40/FFA1 agonist” (Eur J Med Chem, 2021).

What all share (type): ADME, organism-based
Common to all, as to conditions: in vivo

Data set [1] in a line: Cmax in Wistar Han rat at 3 mg/kg, po measured after 24 hours by UPLC-MS/MS analysis. Also noted: route oral, dose 3 mg/kg, time 24 hrs.
Data set [2] in a line: Tmax in Wistar Han rat at 3 mg/kg, po measured after 24 hours by UPLC-MS/MS analysis.
Data set [3] is described as follows: Half life in Wistar Han rat at 3 mg/kg, po measured after 24 hours by UPLC-MS/MS analysis.
Data set [4] can be described thus: Oral bioavailability in Wistar Han rat at 3 mg/kg measured after 24 hours by UPLC-MS/MS analysis.

Regarding `Cc1cc(OCCCS(C)(=O)=O)cc(C)c1-c1cccc(COc2ccc3c(c2)OC[C@H]3CC(=O)O)c1`, in data set [1], the Cmax (as a rule, the peak of the concentration-time curve) was found to be 1830 ng/mL. In data set [2], the Tmax (commonly the time at which the peak concentration occurs) came out at 2 h. In addition, the half-life (as a rule, how long it takes for the measured level to halve) in data set [3] was 2.9 h. For the same molecule, the bioavailability (as a rule, dose-corrected exposure relative to a reference, in per cent) in data set [4] is 36%.
Molecule `CC#C[C@@H](CC(=O)O)c1ccc(OCC(C)=C(C)C)cc1` yielded a Cmax in data set [1] of 1700 ng/mL. Also, in data set [2], the Tmax turned out to be 1 h. This molecule showed a half-life in data set [3] of 1.41 h. The molecule further gave a bioavailability in data set [4] of 65%.
